Legend:
[1] = system: C. albicans C.A.; experiment: Disc-diffusion antimicrobial assay, clinically relevant indicator strains; type: cell-based; conditions: Amph B 10 µg/mL (DMSO/H2O)
Procedure: (§1) Disc-diffusion antimicrobial activity assays against clinically relevant indicator strains.
(§2) Pure compounds (1 mg/mL in DMSO or 50% MeOH) were tested for their antimicrobial activity against a variety of bacterial and fungal indicator strains: B. subtilis 6633 (Bs), S. aureus SG511 (Sa1), E. coli SG458 (Ec), P. aeruginosa K799/61 (Pa), S. aureus 134/94 (MRSA) (Sa2), E. faecalis 1528 (VRSA) (Ef), Mycobacterium vaccae 10670 (Mv), Sporobomyces salmonicolor 549 (Ss), C. albicans C.A. (Ca), and Penicillium notatum JP36 (Pn). On each disc, 50 µl compound solution (50 µg) were applied. Antimicrobial activity was determined by measuring the inhibition zone surrounding the disc in mm (n=3).
(§3) Bs: B. subtilis 663, Sa1: S. aureus SG511, Ec: E. coli SG458, Pa: P. aeruginosa K799/61, Sa2: S. aureus 134/94 (MRSA), Ef: E. faecalis 1528 (VRSA), Mv: M. vaccae 10670, Ss: S. salmonicolor 549, Ca: C. albicans C.A., Pn: P. notatum JP36. P: colonies in the inhibition zone, p: single colonies in the inhibition zone. A: no to low inhibition, n.t.: not tested.
(§4) B. subtilis 663, Sa1: S. aureus SG511, Ec: E. coli SG458, Ca: C. albicans C.A., P: colonies in the inhibition zone, […]

[2] = system: Penicillium notatum JP36; experiment: as above; type: cell-based; conditions: Suppl. Table 17, 1 mg/mL in DMSO, 50 µl (50 µg) per disc, Amph B 10 µg/mL (DMSO/H2O), DMSO solvent control itself 12P, n=3
Procedure: as §1, §2, §3, §4

[3] = system: Sporobomyces salmonicolor 549; experiment: as above; type: cell-based; conditions: Suppl. Table 17, 1 mg/mL in DMSO, 50 µl (50 µg) per disc, Amph B 10 µg/mL (DMSO/H2O), DMSO solvent control itself 13P, n=3
Procedure: as §1, §2, §3, §4

[4] = system: C. albicans SC5314; experiment: Disc-diffusion antimicrobial assay, ecologically relevant indicator strains; type: cell-based, Candida albicans; conditions: Suppl. Table 16, pure compounds 10 mg/mL in DMSO, 5 µl per disc, control Amph B 10 µg/mL (DMSO/H2O), DMSO control 0, n=1
[5] = system: P. monteilii DSM1388; experiment: as above; type: cell-based, Pseudomonas monteilii; conditions: Suppl. Table 16, pure compounds 10 mg/mL in DMSO, 5 µl per disc, control Cip 5 µg/mL (HCl), DMSO control 0, n=1
[6] = system: K. rhizophila DSM11926; experiment: as above; type: cell-based, Kocuria rhizophila; conditions: Suppl. Table 16, pure compounds 10 mg/mL in DMSO, 5 µl per disc, control Cip 5 µg/mL (HCl), DMSO control 0, n=1
[7] = system: B. licheniformis DSM13; experiment: as above; type: cell-based, Bacillus licheniformis; conditions: Suppl. Table 16, pure compounds 10 mg/mL in DMSO, 5 µl per disc, control Cip 5 µg/mL (HCl), DMSO control 0, n=1
[8] = system: B. thuringiensis DSM104061; experiment: as above; type: cell-based, Bacillus thuringiensis; conditions: Suppl. Table 16, pure compounds 10 mg/mL in DMSO, 5 µl per disc, control Cip 5 µg/mL (HCl), DMSO control 0, n=1
[9] = system: DENV2 NS2B-NS3; experiment: Fluorimetric protease inhibition assay; type: biochemical; conditions: 200 µM, 10 min, mean ± standard deviation, n=3
[10] = system: SARS-CoV PLpro; conditions: 200 µM; fluorimetric, 10 min; mean ± standard deviation, n=3
[11] = system: cathepsin B; experiment: Fluorimetric protease inhibition assay; type: biochemical; conditions: 200 µM, 10 min, mean ± standard deviation, n=3
[12] = system: rhodesain; conditions: 200 µM
[13] = system: cathepsin L; experiment: Fluorimetric protease inhibition assay; type: biochemical; conditions: 200 µM, 10 min, mean ± standard deviation, n=3
[14] = system: B. subtilis 6633; experiment: Disc-diffusion antimicrobial assay, clinically relevant indicator strains; conditions: Suppl. Table 17, 1 mg/mL in DMSO, 50 µl (50 µg) per disc, Cip 5 µg/mL (H2O/HCl), DMSO solvent control itself 12P, n=3
[15] = system: S. aureus SG511; experiment: as above; conditions: Suppl. Table 17, 1 mg/mL in DMSO, 50 µl (50 µg) per disc, Cip 5 µg/mL (H2O/HCl), DMSO solvent control itself 11P, n=3
[16] = system: E. coli SG458; experiment: as above; conditions: Suppl. Table 17, 1 mg/mL in DMSO, 50 µl (50 µg) per disc, Cip 5 µg/mL (H2O/HCl), DMSO solvent control itself 12P, n=3
[17] = system: P. aeruginosa K799/61; conditions: Suppl. Table 17; disc diffusion; 1 mg/mL in DMSO, 50 µl (50 µg) per disc; Cip 5 µg/mL (H2O/HCl); DMSO solvent control itself 12P; n=3
[18] = system: S. aureus 134/94 (MRSA); experiment: Disc-diffusion antimicrobial assay, clinically relevant indicator strains; conditions: Suppl. Table 17, 1 mg/mL in DMSO, 50 µl (50 µg) per disc, Cip 5 µg/mL (H2O/HCl), DMSO solvent control 0, n=3
[19] = system: cruzain; experiment: Fluorimetric protease inhibition assay; type: biochemical, Trypanosoma cruzi; conditions: 200 µM, 10 min, mean ± standard deviation, n=3
[20] = system: SARS-CoV2 Mpro; conditions: 200 µM; fluorimetric, 10 min; mean ± standard deviation, n=3
[21] = system: sortase A (SrtA); conditions: 200 µM
[22] = system: urokinase (uPA); experiment: Fluorimetric protease inhibition assay; type: biochemical; conditions: 200 µM, 10 min, mean ± standard deviation, n=3
[23] = system: Mycobacterium vaccae 10670; experiment: Disc-diffusion antimicrobial assay, clinically relevant indicator strains; conditions: Suppl. Table 17, 1 mg/mL in DMSO, 50 µl (50 µg) per disc, Cip 5 µg/mL (H2O/HCl), DMSO solvent control itself 11P, n=3
[24] = system: ZIKV NS2B-NS3; conditions: 200 µM
[25] = Suppl. Table 17, disc diffusion, 1 mg/mL in DMSO, 50 µl (50 µg) per disc, DMSO solvent control 0, n=3

| Compound | inhibition zone, Ca [1, 25] | inhibition zone, Pn [2] | inhibition zone, Ss [3] | inhibition zone, Ca2 [4] | inhibition zone, Pm [5] | inhibition zone, Kr [6] | inhibition zone, Bl [7] | inhibition zone, Bt [8] | Protease inhibition rate, DENV2 [9] | Protease inhibition rate, PLpro (SARS-CoV) [10] | Protease inhibition rate, Cathepsin B [11] | Protease inhibition rate, Rhodesain [12] | Protease inhibition rate, Cathepsin L [13] | inhibition zone, Bs [14] | inhibition zone, Sa1 [15] | inhibition zone, Ec [16] | inhibition zone, Sa2 [18] | Protease inhibition rate, Cruzain [19] | Protease inhibition rate, Mpro (SARS-CoV2) [20] | Protease inhibition rate, SrtA [21] | other results |
| --- | --- | --- | --- | --- | --- | --- | --- | --- | --- | --- | --- | --- | --- | --- | --- | --- | --- | --- | --- | --- | --- |
| C[C@@H]1[C@H](O)[C@@H](C)/C=C/C=C/C=C/C=C/C=C/C=C/C=C/[C@H](O[C@@H]2O[C@H](C)[C@@H](O)[C@H](N)[C@@H]2O)C[C@@H]2O[C@](O)(C[C@@H](O)C[C@@H](O)[C@H](O)CC[C@@H](O)C[C@@H](O)CC(=O)O[C@H]1C)C[C@H](O)[C@H]2C(=O)O [Amph B, Amphotericin B, reference compound] | 20 mm | 18p | 17p | 20 mm | – | – | – | – | – | – | – | – | – | – | – | – | – | – | – | – | inhibition zone, Ca ([1]; Suppl. Table 18, compound mixtures, total conc. 1 mg/mL in 50% MeOH, solvent control 0, n=1): 21 mm |
| O=C(O)c1cn(C2CC2)c2cc(N3CCNCC3)c(F)cc2c1=O [Cip, Ciprofloxacin, reference compound] | – | – | – | – | 33 mm | 22 mm | 35 mm | 28 mm | – | – | – | – | – | – | – | – | – | – | – | – | – |
| Pachycephalamide A [Compound 1] | – | 11p | 15p | 0 mm | 0 mm | 0 mm | 0 mm | 0 mm | 8.57 ± 3.83% | 1.01 ± 1.74% | 55.19 ± 2.16% | 55.29 ± 2.15 | 61.88 ± 2.85% | 0 mm | 0 mm | 0 mm | 0 mm | 64.85 ± 1.50% | 12.82 ± 8.66% | 12.86 ± 2.35 | inhibition zone, Pa [17]: 18P; Protease inhibition rate, uPA [22]: 8.32 ± 4.90%; inhibition zone, Mv [23]: 0 mm; Protease inhibition rate, ZIKV [24]: 7.99 ± 3.53 |
| Pachycephalamide B [Compound 2] | 0 mm | 13p | 14p | 0 mm | 0 mm | 0 mm | 0 mm | 0 mm | 29.25 ± 7.00% | 14.94 ± 1.31% | 54.94 ± 2.96% | 47.71 ± 2.73 | 50.42 ± 1.21% | 0 mm | 0 mm | 15P | 0 mm | 49.62 ± 3.44% | 57.34 ± 9.94% | 61.07 ± 4.93 | inhibition zone, Pa [17]: 18P; Protease inhibition rate, uPA [22]: 0 ± 0%; Protease inhibition rate, ZIKV [24]: 29.95 ± 3.36 |
| Pachycephalamide C [Compound 3] | 0 mm | 13p | 22p | 0 mm | 0 mm | 0 mm | 0 mm | 0 mm | 9.19 ± 3.06% | 0 ± 0% | 56.16 ± 6.18% | 58.33 ± 1.36 | 62.51 ± 4.09% | 0 mm | 0 mm | 15P | 0 mm | 63.82 ± 1.43% | 9.25 ± 7.28% | 14.00 ± 4.62 | Protease inhibition rate, uPA [22]: 0 ± 0% |
| Pachycephalamide D [Compound 4] | 0 mm | 12p | 25p | 0 mm | 0 mm | 0 mm | 0 mm | 0 mm | 33.81 ± 3.08% | 2.05 ± 2.29% | 73.50 ± 4.05% | 72.76 ± 1.07 | 78.67 ± 2.19% | 0 mm | 0 mm | 13P | 0 mm | 73.97 ± 1.54% | 24.32 ± 2.62% | 28.78 ± 4.59 | inhibition zone, Pa [17]: 18P; Protease inhibition rate, uPA [22]: 0.56 ± 0.90%; inhibition zone, Mv [23]: 0 mm; Protease inhibition rate, ZIKV [24]: 35.04 ± 1.21 |
